Reference: PubChem BioAssay (NCI)
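Where inhibition never reached the appropriate level, the endpoint shown equals the highest concentration tested. Otherwise, values were interpolated linearly from a five-concentration, 48-hour dose response in 96-well plates. GI50 marks 50% less growth. Definition used: TGI = concentration required for complete inhibition of growth.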

Assays:
Experiment in all cases: NCI tumour cell line growth inhibition, 48 h
[1] = system: 786-0 renal
[2] = system: A498 renal
[3] = system: A549 NSCLC
[4] = system: ACHN renal
[5] = system: BT-549 breast
[6] = system: CAKI-1 renal
[7] = system: CCRF-CEM leukemia
[8] = system: COLO 205 colon
[9] = system: DU-145 prostate
[10] = system: EKVX NSCLC
[11] = system: HCC-2998 colon
[12] = system: HCT-116 colon
[13] = system: HCT-15 colon
[14] = system: HL-60(TB) leukemia
[15] = system: HOP-62 NSCLC
[16] = system: HS 578T breast
[17] = system: HT29 colon
[18] = system: IGROV1 ovarian
[19] = system: K-562 leukemia
[20] = system: KM12 colon
[21] = system: LOX IMVI melanoma
[22] = system: M14 melanoma
[23] = system: MALME-3M melanoma
[24] = system: MCF7 breast
[25] = system: MDA-MB-231 breast
[26] = system: MDA-MB-435
[27] = system: MOLT-4 leukemia
[28] = system: NCI-H226 lung
[29] = system: NCI-H23 lung
[30] = system: NCI-H460 lung
[31] = system: NCI-H522 lung
[32] = system: NCI/ADR-RES ovarian
[33] = system: OVCAR-3 ovarian
[34] = system: OVCAR-4 ovarian
[35] = system: OVCAR-5 ovarian
[36] = system: OVCAR-8 ovarian
[37] = system: PC-3 prostate
[38] = system: RPMI-8226 leukemia
[39] = system: RXF 393 renal
[40] = system: SF-268 CNS
[41] = system: SF-295 CNS
[42] = system: SF-539 CNS
[43] = system: SK-MEL-2 melanoma
[44] = system: SK-MEL-28 melanoma
[45] = system: SK-MEL-5 melanoma
[46] = system: SK-OV-3 ovarian
[47] = system: SN12C renal
[48] = system: SNB-19 CNS
[49] = system: SNB-75 CNS
[50] = system: SR leukemia
[51] = system: SW-620 colon
[52] = system: T-47D breast
[53] = system: TK-10 renal
[54] = system: U251 CNS
[55] = system: UACC-257 melanoma
[56] = system: UACC-62 melanoma
[57] = system: UO-31 renal
[58] = system: HOP-92 NSCLC

Clc1nc(Cl)c2ncn(Cc3ccc(Cn4cnc5c(Cl)nc(Cl)nc54)cc3)c2n1
GI50 [1]: 1.6 µM | TGI [1]: 11.2 µM | GI50 [2]: 7.48 µM | TGI [2]: 50.2 µM | GI50 [3]: 11.5 µM | TGI [3]: 25.5 µM | GI50 [4]: 5.16 µM | TGI [4]: 20.4 µM | TGI [5]: 18.9 µM | GI50 [6]: 13.6 µM | TGI [6]: 27.8 µM | TGI [7]: 1.84 µM | GI50 [8]: > 100 µM | TGI [8]: > 100 µM | TGI [9]: 10 µM | TGI [10]: 25 µM | GI50 [11]: 11 µM | TGI [11]: 24 µM | GI50 [12]: 0.852 µM | TGI [12]: 16.2 µM | GI50 [13]: 6.24 µM | TGI [13]: 19.3 µM | GI50 [14]: 0.0475 µM | TGI [14]: 4.4 µM | GI50 [15]: 6.73 µM | TGI [15]: 21.5 µM | TGI [16]: > 40.2 µM | TGI [17]: 16.4 µM | GI50 [18]: 6.08 µM | TGI [18]: 20.6 µM | GI50 [19]: 0.661 µM | TGI [19]: 14 µM | GI50 [20]: 12.5 µM | TGI [20]: 31.2 µM | GI50 [21]: 0.96 µM | TGI [21]: 14.9 µM | GI50 [22]: 11.2 µM | TGI [22]: 27 µM | GI50 [23]: 5.62 µM | TGI [23]: 29.3 µM | GI50 [24]: 2.22 µM | TGI [24]: 14.9 µM | GI50 [25]: 3.23 µM | TGI [25]: 22.4 µM | GI50 [26]: 14.2 µM | TGI [26]: 33.6 µM | GI50 [27]: 3.88 µM | TGI [27]: 16.1 µM | GI50 [28]: 11.2 µM | TGI [28]: 51.6 µM | GI50 [29]: 2.02 µM | TGI [29]: 22.8 µM | GI50 [30]: 4.75 µM | TGI [30]: 22.2 µM | GI50 [31]: 5.65 µM | TGI [31]: 25 µM | GI50 [32]: 7.64 µM | TGI [32]: 28.8 µM | GI50 [33]: 8.68 µM | TGI [33]: 25.6 µM | GI50 [34]: 13.6 µM | TGI [34]: 28.6 µM | GI50 [35]: 2.03 µM | TGI [35]: 10.9 µM | GI50 [36]: 10.4 µM | TGI [36]: 25 µM | GI50 [37]: 1.56 µM | TGI [37]: 16.3 µM | TGI [38]: 7.07 µM | TGI [39]: 0.555 µM | GI50 [40]: 3.4 µM | TGI [40]: 23.4 µM | GI50 [41]: 7.68 µM | TGI [41]: 48.2 µM | GI50 [42]: 5.04 µM | TGI [42]: 20.7 µM | GI50 [43]: 10.8 µM | TGI [43]: 34.9 µM | TGI [44]: 28.3 µM | GI50 [45]: 2.13 µM | TGI [45]: 20.8 µM | GI50 [46]: > 100 µM | TGI [46]: > 100 µM | GI50 [47]: 12.1 µM | TGI [47]: 32.4 µM | GI50 [48]: 76.2 µM | TGI [48]: > 100 µM | TGI [49]: 37.6 µM | GI50 [50]: 0.287 µM | TGI [50]: 8.08 µM | TGI [51]: 8.91 µM | GI50 [52]: 12.4 µM | TGI [52]: > 36.7 µM | GI50 [53]: 15.6 µM | TGI [53]: 35.2 µM | GI50 [54]: 13.2 µM | TGI [54]: 27.7 µM | GI50 [55]: 4.87 µM | TGI [55]: 30.5 µM | GI50 [56]: 12.5 µM | TGI [56]: 27.8 µM | GI50 [57]: 5.01 µM | TGI [57]: 20.1 µM

COc1ccc2nc(NC(=O)c3cccnc3Nc3cc(OC)c(OC)c(OC)c3)sc2c1
GI50 [1]: 5.6 µM | TGI [1]: 19.7 µM | GI50 [2]: 2.19 µM | TGI [2]: 7.42 µM | GI50 [3]: 7.38 µM | TGI [3]: 22 µM | GI50 [4]: 6.47 µM | TGI [4]: 20.6 µM | GI50 [5]: 11.6 µM | TGI [5]: 28.2 µM | GI50 [6]: 16.4 µM | TGI [6]: 42.5 µM | GI50 [7]: 20.1 µM | TGI [7]: > 100 µM | GI50 [8]: 17.4 µM | TGI [8]: 51.5 µM | GI50 [9]: 14.6 µM | TGI [9]: 33.8 µM | GI50 [10]: 11.5 µM | TGI [10]: 55.6 µM | GI50 [11]: 17 µM | TGI [11]: 39.4 µM | GI50 [12]: 4.5 µM | TGI [12]: 18.4 µM | GI50 [13]: 11.2 µM | TGI [13]: 85.6 µM | GI50 [14]: 32.3 µM | TGI [14]: > 100 µM | GI50 [15]: 6.33 µM | TGI [15]: 22.3 µM | GI50 [58]: 2.24 µM | TGI [58]: 9.5 µM | GI50 [16]: 5.77 µM | TGI [16]: 30.9 µM | GI50 [17]: 17.7 µM | TGI [17]: 39.2 µM | GI50 [18]: 13.2 µM | TGI [18]: 28.5 µM | GI50 [19]: 8.91 µM | TGI [19]: > 100 µM | GI50 [20]: 4.51 µM | TGI [20]: 19 µM | GI50 [21]: 15.7 µM | TGI [21]: 42.2 µM | GI50 [22]: 10.5 µM | TGI [22]: 29.6 µM | GI50 [23]: 10.1 µM | TGI [23]: 24.6 µM | GI50 [24]: 0.515 µM | TGI [24]: 13.6 µM | GI50 [25]: 5.62 µM | TGI [25]: 21.7 µM | GI50 [26]: 1.85 µM | TGI [26]: 10.4 µM | GI50 [27]: 24.2 µM | TGI [27]: > 100 µM | GI50 [28]: 10.7 µM | TGI [28]: 96.7 µM | GI50 [29]: 5.38 µM | TGI [29]: 22.7 µM | GI50 [30]: 7.42 µM | TGI [30]: 24 µM | GI50 [31]: 2.6 µM | TGI [31]: 12 µM | GI50 [32]: 8.97 µM | TGI [32]: 25.7 µM | GI50 [33]: 8.92 µM | TGI [33]: 21.5 µM | GI50 [34]: 15 µM | TGI [34]: 32.6 µM | GI50 [35]: 14.5 µM | TGI [35]: 29 µM | GI50 [36]: 6.52 µM | TGI [36]: 22.6 µM | GI50 [37]: 6.67 µM | TGI [37]: 23.2 µM | GI50 [38]: 9.94 µM | TGI [38]: 34.9 µM | GI50 [39]: 2.6 µM | TGI [39]: 8.85 µM | GI50 [40]: 4.43 µM | TGI [40]: 18.9 µM | GI50 [41]: 8.34 µM | TGI [41]: 27.1 µM | GI50 [42]: 2.8 µM | TGI [42]: 11.2 µM | GI50 [44]: 7.88 µM | TGI [44]: 21.3 µM | GI50 [45]: 11.3 µM | TGI [45]: 47.7 µM | GI50 [46]: 3.72 µM | TGI [46]: 14.5 µM | GI50 [47]: 11.7 µM | TGI [47]: 27.5 µM | GI50 [48]: 15 µM | TGI [48]: 31.7 µM | GI50 [49]: 2.89 µM | TGI [49]: 12.8 µM | GI50 [50]: 2.31 µM | TGI [50]: 16.1 µM | GI50 [51]: 11.8 µM | TGI [51]: 24.5 µM | GI50 [52]: 5.06 µM | TGI [52]: 51.3 µM | GI50 [53]: 4.31 µM | TGI [53]: 14.1 µM | GI50 [54]: 7.1 µM | TGI [54]: 21.7 µM | GI50 [55]: 14.6 µM | TGI [55]: 29.6 µM | GI50 [56]: 8.45 µM | TGI [56]: 24.6 µM | GI50 [57]: 9.3 µM | TGI [57]: 27.2 µM
